Patent publication US20260355318A1, “MOLECULAR MACHINES FOR TREATMENT OF CANCER, FUNGAL INFECTIONS, OR BACTERIAL INFECTIONS” (priority 2022, published 2026)
Converted amounts (≈) assume the structure as drawn.

Legend:
T. rubrum = test: MIC, MMs and antifungals, T. rubrum; format: cell-based, Trichophyton rubrum (ATCC 10218); settings: Trichophyton rubrum, read-out: MIC of antifungal agent
Description: Cell suspensions for susceptibility testing (MMs and conventional antifungals) were prepared per the Clinical & Laboratory Standards Institute (CLSI) guidelines (CLSI, 2017; CLSI, 2008). Before testing, yeasts (C. albicans and S. cerevisiae) were sub-cultured in Sabouraud Dextrose Agar-Emmons Modification (SDAE) plates and grown for 24 h at 30 °C. Five independent colonies from 24-h-old plates were collected and diluted to ~10^4 colony forming units (CFU) per mL in sterile saline (CLSI, 2017). Molds (A. fumigatus and the dermatophytes T. rubrum and M. gypseum) were sub-cultured on SDAE medium and incubated for 7 days at 28 °C. Conidia were recovered by covering the plates with sterile distilled water and scraping the colonies. The suspensions were filtered (8-μm pore size) and diluted in saline to ~10^4 CFU mL^−1 (Santos and Hamdan, 2005).
After a 30-min incubation in the dark, cell suspensions were transferred to small, sterilized glass beakers, which were then placed in a water bath. Each sample was irradiated with 405-nm light at 292 mW cm^−2 for 5 min, corresponding to a light dose of 87.6 J cm^−2, determined using an S415C thermal power sensor (Thorlabs, Newton, MA, USA). During irradiation, the cell suspensions were agitated with a small metal stirrer. […]

C. albicans = test: MIC, visible-light-activated MMs and conventional antifungals, C. albicans; format: cell-based, Candida albicans (ATCC 18804); settings: Candida albicans, read-out: MIC of antifungal agent
Summary of the method: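 C. albicans suspensions (~10^4 CFU/mL in saline, CLSI) incubated 30 min in the dark with MMs, then irradiated with stirring at 405 nm, 292 mW cm^−2 for 5 min (87.6 J cm^−2). Cells then grown in MOPS-buffered RPMI 1640 (pH 7.0) at 30 °C for 48 h; MIC is lowest concentration with no visible growth; conventional antifungals tested likewise.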

A. baumannii [1] = test: G. mellonella burn wound infection model, A. baumannii; format: in vivo, Galleria mellonella; settings: A. baumannii-infected G. mellonella, 1×MIC
Description: (§1) Animal studies were conducted in the burn wound model Galleria mellonella recently described (Maslova et al., 2020). […] Larvae were sorted into Petri dishes lined with Whatman filter paper (Fisher Scientific, Pittsburgh, PA) and stored at 4 ° C until use. The larval bodies were sterilized with 70% ethanol. The burn was generated using a soldering iron (Weller WE1010 ESD-Safe Digital 70-Watt Soldering Station, 120V, Weller Company, Easton, PA, USA) to achieve a consistent burn area of ≈2 mm^2 in the middle section of the back of larvae. This location was chosen so the wound could be easily visualized without having to physically manipulate the larvae. Immediately post-burn, the wound was inoculated with 10 μL of 1:10 dilution of an overnight culture of A. baumannii or S. aureus. […] In order to minimize any potential temperature effects, a constant flow of 0.2 μm pore-size-filtered air was provided to the surface of the worm. Dark 1% DMSO controls were also included. The mortality of larvae post-treatment was monitored for up to 7 days. Mortality was recorded by complete melanization of the larval body and complete loss of motility. A brief overview of the protocol is schematically depicted in FIG. 44A. Work in Galleria mellonella was reviewed and approved by the Office of Sponsored Projects and Research Compliance (SPARC) of Rice University.

A. baumannii [2] = test: MIC, A. baumannii; format: cell-based, Acinetobacter baumannii; settings: A. baumannii, broth microdilution
Summary of the method: (§2)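 Cell suspensions were exposed to compound at 0.3125-40 μM for 30 min in the dark, with agitation, at 30 or 37 °C depending on strain. Each sample was then irradiated with 405 nm light at 146 mW cm^−2 for 5 min (43.8 J cm^−2), inoculated into MHB and incubated overnight. MIC was read as the lowest concentration without visible growth, alongside non-irradiated controls.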

[3] = system: biofilms of P. aeruginosa and S. aureus; test: Biofilm total bacterial cell number (acridine orange); format: cell-based, Pseudomonas aeruginosa, Staphylococcus aureus; settings: 2×MIC, vs untreated controls
Description: (§3) This combination of methods is effective at evaluating the antibiofilm potential of chemicals (Stiefel et al., 2016). P. aeruginosa and S. aureus were grown overnight in tryptic soy broth (TSB) medium. The overnight cultures were diluted in 1:100 in fresh media and 100 μL aliquots were distributed in a 96-well plate. After 24 h of static growth at 37 ° C, planktonic cells were removed by inverting the plate onto a stack of paper towels, and the biofilm was washed three times with PBS. After washing, MM 1, MM 5, or MM 6 were added at 2×MIC to the biofilm and incubated statically in the dark for 60 min. The biofilm was then irradiated for 15, 30, or 45 min at 146 mW cm2. For the determination of the total bacterial number, acridine orange solution (2% in H2O) diluted 1:100 in Walpole's buffer (27.2 g L-1 sodium acetate trihydrate, adjusted to pH 4 with glacial acetic acid) was added to the wells.

S. aureus [4] = test: MIC, S. aureus; format: cell-based, Staphylococcus aureus; settings: Staphylococcus aureus, read-out: Antibiotic MIC
Summary of the method: as §2

S. aureus [5] = test: G. mellonella burn wound infection model, S. aureus; format: in vivo, Galleria mellonella; settings: S. aureus-infected G. mellonella, 1×MIC
Description: as §1

[6] = system: biofilms of P. aeruginosa and S. aureus; test: Biofilm metabolically active cells (ATP); format: cell-based, Pseudomonas aeruginosa, Staphylococcus aureus; settings: 2×MIC, antibiotics 45 min, MMs 15 min + light, vs untreated
Description: as §3
For quantification of viable cells in biofilms, following the addition of 100 μL […] of TSB to each well, bacteria were detached from the biofilm by thorough mixing, after which […] of BacTiter-Glo™ reagent, prepared according to the manufacturer's instructions, was added to each well.

## Cc1cc(C2CCCCC2)n(O)c(=O)c1 [Ciclopirox (CPX), Ciclopirox]
T. rubrum
  MIC: 0.5 µg/mL
C. albicans
  MIC: 1 µg/mL

## Polymyxin B [reference compound]
A. baumannii [1]
  mortality after 7 days: 69%
A. baumannii [2]
  Antibiotic MIC: 0.125 μg per mL

## NC[C@H]1O[C@H](O[C@H]2[C@H](O)[C@@H](O[C@H]3O[C@H](CO)[C@@H](O)[C@H](N)[C@H]3O)[C@H](N)C[C@@H]2N)[C@H](N)C[C@@H]1O [Tobramycin]
[3]
  reduction in total bacterial cell number in biofilm: up to 43%
S. aureus [4]
  MIC: 4 µg/mL (≈ 8.56 µM)
S. aureus [5]
  mortality after 7 days: 33%
[6]
  reduction in metabolically active cells in biofilm: 27%
